Results: PMC4828713, “New potential binding determinant for hERG channel inhibitors” (Scientific Reports, 2016)

What was measured:
Y652A-hERG = Y652A-hERG (Homo sapiens, UniProt Q12809, Y652A); conditions: pH 7.4
From the text: (§1) For hERG measurements, the oocytes were clamped at a holding potential of −100 mV and depolarized to +20 mV allowing activation and inactivation. […] Channel block was estimated from tail current inhibition.

[1] = target: wild type hERG (WT) channels (Homo sapiens, UniProt Q12809); conditions: pH 7.4
From the text: as §1

Structure (SMILES): O=C(CCCN1CCC(O)(c2ccc(Cl)cc2)CC1)c1ccc(F)cc1 [Haloperidol, haloperidol]
- Y652A-hERG nH (hill coefficient) (Y652A-hERG): 1 ± 0.04
- Y652A-hERG ∆IC50 (Y652A-hERG): 31.4
- WT nH (hill coefficient) [1]: 1.3 ± 0.1
